Active and inactive are the calls of the source. No cut-off for these calls is given here.
Key:
[1] = In vivo inhibition of NEH3 in Sprague-Dawley rat assessed as fecal form score at 3 mg/kg, po administered via gavage measured after 6 hrs; assay type: functional
[2] = In vivo inhibition of NEH3 in Sprague-Dawley rat assessed as fecal water content at 3 mg/kg, po administered via gavage measured after 6 hrs; assay type: functional; set-up: scale not given: the % may be the effect or the level left
[3] = Cmax in Sprague-Dawley rat at 28 mg/kg, po administered via gavage by LC-MS/MS analysis; assay type: ADME, organism-based; set-up: dose 28 mg/kg, route po; conditions: in vivo
[4] = AUC in Sprague-Dawley rat at 28 mg/kg, po administered via gavage by LC-MS/MS analysis; conditions: in vivo
[5] = In vivo inhibition of NEH3 in Sprague-Dawley rat assessed as sodium excretion in urine at 3 mg/kg, po administered via gavage measured after 16 hrs by ion chromatography relative to control; set-up: scale not given: the % may be the effect or the level left
[6] = Cmax in Sprague-Dawley rat at 17 mg/kg, po administered via gavage by LC-MS/MS analysis; assay type: ADME, organism-based; set-up: dose 17 mg/kg, route po; conditions: in vivo
[7] = AUC in Sprague-Dawley rat at 17 mg/kg, po administered via gavage by LC-MS/MS analysis; conditions: in vivo
[8] = Dose normalized AUC in Sprague-Dawley rat at 5.3 mg/kg, po administered via gavage by LC-MS/MS analysis; assay type: ADME, organism-based; conditions: in vivo
[9] = target: Sodium/hydrogen exchanger 3 (Rattus norvegicus, UniProt P26433); test: Inhibition of rat NHE3 expressed in opossum kidney cells assessed as reduction in Na-HEPES buffer-mediated pH recovery in presence of NEH1 inhibitor ethyl isopropyl amiloride by BCECF-AM dye based fluorescence assay; assay type: cell-based, Kidney epithelial cell
Sodium/hydrogen exchanger 3 (Rattus norvegicus, UniProt P26433), sequence (P26433 whole entry): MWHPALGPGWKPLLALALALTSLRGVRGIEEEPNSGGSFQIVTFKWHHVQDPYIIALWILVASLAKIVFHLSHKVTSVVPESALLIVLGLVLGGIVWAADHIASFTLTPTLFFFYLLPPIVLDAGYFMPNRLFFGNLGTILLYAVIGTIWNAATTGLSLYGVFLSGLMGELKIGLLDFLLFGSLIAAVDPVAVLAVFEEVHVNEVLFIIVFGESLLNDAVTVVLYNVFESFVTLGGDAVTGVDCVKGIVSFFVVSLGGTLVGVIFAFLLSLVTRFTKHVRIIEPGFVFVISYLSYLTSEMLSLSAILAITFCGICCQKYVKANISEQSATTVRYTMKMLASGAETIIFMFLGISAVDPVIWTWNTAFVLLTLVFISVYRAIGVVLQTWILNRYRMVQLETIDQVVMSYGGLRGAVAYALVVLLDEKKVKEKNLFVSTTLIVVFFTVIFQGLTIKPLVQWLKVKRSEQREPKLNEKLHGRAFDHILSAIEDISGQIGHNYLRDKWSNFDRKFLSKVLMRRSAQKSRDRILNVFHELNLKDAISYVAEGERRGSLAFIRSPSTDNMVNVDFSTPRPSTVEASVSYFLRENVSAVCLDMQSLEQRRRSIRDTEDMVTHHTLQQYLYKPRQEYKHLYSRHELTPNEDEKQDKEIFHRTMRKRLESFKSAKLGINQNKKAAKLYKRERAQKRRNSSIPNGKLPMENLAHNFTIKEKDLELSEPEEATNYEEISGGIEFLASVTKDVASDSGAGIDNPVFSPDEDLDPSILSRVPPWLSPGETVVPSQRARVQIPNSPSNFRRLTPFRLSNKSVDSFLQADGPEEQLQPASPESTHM

[10] = Cmax in Sprague-Dawley rat at 23 mg/kg, po administered via gavage by LC-MS/MS analysis; assay type: ADME, organism-based; set-up: dose 23 mg/kg, route po; conditions: in vivo
[11] = AUC in Sprague-Dawley rat at 23 mg/kg, po administered via gavage by LC-MS/MS analysis; conditions: in vivo
[12] = test system: Rattus norvegicus; test: In vivo inhibition of NEH3 in Sprague-Dawley rat assessed as reduction in sodium excretion in urine at 0.1 to 3 mg/kg, po administered via gavage measured after 16 hrs by ion chromatography; assay type: functional, organism-based; conditions: dose 0.1-3 mg/kg
[13] = In vivo inhibition of NEH3 in Sprague-Dawley rat assessed as increase in fecal water content at 0.1 to 3 mg/kg, po administered via gavage measured after 6 hrs; assay type: functional; set-up: scale not given: the % may be the effect or the level left; conditions: dose 0.1-3 mg/kg
[14] = Drug recovery in Sprague-Dawley rat feces at 0.3 mg/kg, po administered via gavage measured after 64 hrs by LC-MS/MS analysis; assay type: ADME, organism-based; conditions: faeces, read-out: Drug recovery
[15] = Drug metabolism in Sprague-Dawley rat feces at 0.3 mg/kg, po administered via gavage measured after 64 hrs by LC-MS/MS analysis; assay type: ADME, organism-based; conditions: in vivo
[16] = Cmax in Sprague-Dawley rat at 30 mg/kg, po administered via gavage by LC-MS/MS analysis; assay type: ADME, organism-based; set-up: dose 30 mg/kg, route po; conditions: Sprague-Dawley, in vivo, read-out: Cmax
[17] = Drug metabolism in Sprague-Dawley rat at 30 mg/kg, po administered via gavage by LC-MS/MS analysis; assay type: ADME, organism-based; conditions: in vivo
[18] = target: hERG (KCNH2) (Homo sapiens, UniProt Q12809); test: Inhibition of human ERG at 10 uM relative to control; assay type: toxicity
hERG (KCNH2), sequence (Q12809 whole entry): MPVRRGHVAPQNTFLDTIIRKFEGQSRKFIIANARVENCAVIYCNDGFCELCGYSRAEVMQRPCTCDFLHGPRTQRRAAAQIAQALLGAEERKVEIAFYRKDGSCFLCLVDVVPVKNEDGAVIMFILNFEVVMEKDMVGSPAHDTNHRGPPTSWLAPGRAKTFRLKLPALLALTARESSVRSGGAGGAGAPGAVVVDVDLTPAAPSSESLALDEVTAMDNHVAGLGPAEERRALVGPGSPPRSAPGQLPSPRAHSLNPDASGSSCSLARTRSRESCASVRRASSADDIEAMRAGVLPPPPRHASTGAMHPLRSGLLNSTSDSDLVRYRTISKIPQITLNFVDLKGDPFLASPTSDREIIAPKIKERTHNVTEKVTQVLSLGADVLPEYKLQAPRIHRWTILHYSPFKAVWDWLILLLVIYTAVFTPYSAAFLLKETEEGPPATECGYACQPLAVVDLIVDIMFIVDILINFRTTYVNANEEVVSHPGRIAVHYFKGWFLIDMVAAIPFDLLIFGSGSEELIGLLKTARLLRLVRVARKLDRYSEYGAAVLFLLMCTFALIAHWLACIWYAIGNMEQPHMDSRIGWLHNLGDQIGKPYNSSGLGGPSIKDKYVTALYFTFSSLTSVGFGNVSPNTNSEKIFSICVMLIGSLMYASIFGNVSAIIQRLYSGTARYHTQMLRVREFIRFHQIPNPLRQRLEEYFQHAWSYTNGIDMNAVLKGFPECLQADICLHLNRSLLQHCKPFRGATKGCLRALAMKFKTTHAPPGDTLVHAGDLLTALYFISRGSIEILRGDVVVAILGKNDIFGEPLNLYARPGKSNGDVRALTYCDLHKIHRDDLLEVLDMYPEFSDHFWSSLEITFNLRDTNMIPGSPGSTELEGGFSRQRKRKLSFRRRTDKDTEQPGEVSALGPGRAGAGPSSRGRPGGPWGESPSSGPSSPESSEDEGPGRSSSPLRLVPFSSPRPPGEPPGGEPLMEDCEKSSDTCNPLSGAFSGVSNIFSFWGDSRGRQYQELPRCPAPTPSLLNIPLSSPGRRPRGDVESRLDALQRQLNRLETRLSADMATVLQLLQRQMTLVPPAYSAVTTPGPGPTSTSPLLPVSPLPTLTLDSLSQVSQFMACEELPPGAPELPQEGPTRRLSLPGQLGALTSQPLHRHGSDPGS

[19] = target: T1, Sodium/hydrogen exchanger 3 (Homo sapiens, UniProt P48764); test: Inhibition of human NHE3 expressed in opossum kidney cells assessed as reduction in Na-HEPES buffer-mediated pH recovery in presence of NEH1 inhibitor ethyl isopropyl amiloride by BCECF-AM dye based fluorescence assay; assay type: cell-based, Kidney epithelial cell
T1 sequence (P48764 whole entry): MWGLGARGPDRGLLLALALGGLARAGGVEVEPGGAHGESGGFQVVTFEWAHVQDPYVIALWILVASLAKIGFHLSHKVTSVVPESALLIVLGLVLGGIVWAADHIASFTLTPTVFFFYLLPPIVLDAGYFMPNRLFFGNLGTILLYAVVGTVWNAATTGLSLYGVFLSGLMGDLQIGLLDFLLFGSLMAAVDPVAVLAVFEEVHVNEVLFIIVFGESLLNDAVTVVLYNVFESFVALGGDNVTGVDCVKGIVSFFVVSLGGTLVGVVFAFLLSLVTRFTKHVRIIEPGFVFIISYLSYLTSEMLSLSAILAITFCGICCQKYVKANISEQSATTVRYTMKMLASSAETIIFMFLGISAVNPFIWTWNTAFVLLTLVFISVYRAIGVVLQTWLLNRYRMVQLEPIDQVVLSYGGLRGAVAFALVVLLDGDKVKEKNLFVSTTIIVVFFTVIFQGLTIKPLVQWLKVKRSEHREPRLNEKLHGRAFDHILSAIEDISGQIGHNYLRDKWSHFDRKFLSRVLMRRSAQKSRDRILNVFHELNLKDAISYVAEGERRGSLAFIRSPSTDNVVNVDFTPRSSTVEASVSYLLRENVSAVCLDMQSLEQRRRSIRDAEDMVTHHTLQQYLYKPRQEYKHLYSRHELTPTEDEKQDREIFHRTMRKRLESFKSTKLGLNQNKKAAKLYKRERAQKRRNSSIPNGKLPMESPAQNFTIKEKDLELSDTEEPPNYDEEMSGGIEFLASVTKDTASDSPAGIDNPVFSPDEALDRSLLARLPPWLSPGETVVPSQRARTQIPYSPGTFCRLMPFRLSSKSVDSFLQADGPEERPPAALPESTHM

[20] = Cmax in Sprague-Dawley rat at 11 mg/kg, po administered via gavage by LC-MS/MS analysis; assay type: ADME, organism-based; set-up: dose 11 mg/kg, route po; conditions: in vivo
[21] = Oral bioavailability in Sprague-Dawley rat at 11 mg/kg administered via gavage by LC-MS/MS analysis; assay type: ADME, organism-based; conditions: in vivo
[22] = Apparent permeability in MDCK cells at 10 uM measured after 60 mins by LC-MS/MS analysis; assay type: ADME, cell-based, Canis lupus familiaris; conditions: dog, 1 h
[23] = AUC in Sprague-Dawley rat at 11 mg/kg, po administered via gavage by LC-MS/MS analysis; conditions: in vivo
[24] = Cmax in Sprague-Dawley rat at 1.5 mg/kg, po administered via gavage by LC-MS/MS analysis; assay type: ADME, organism-based; set-up: dose 1.5 mg/kg, route po; conditions: in vivo
[25] = test system: Rattus norvegicus; test: In vivo inhibition of NEH3 in Sprague-Dawley rat assessed as increase in cecum water content at 10 mg/kg, po administered via gavage measured after 6 hrs; assay type: functional, organism-based
[26] = test system: Rattus norvegicus; test: In vivo inhibition of NEH3 in Sprague-Dawley rat assessed as increase in colon water content at 10 mg/kg, po administered via gavage measured after 6 hrs; assay type: functional, organism-based
[27] = AUC in Sprague-Dawley rat at 1.5 mg/kg, po administered via gavage by LC-MS/MS analysis; conditions: in vivo
[28] = Cmax in Sprague-Dawley rat at 22 mg/kg, po administered via gavage by LC-MS/MS analysis; assay type: ADME, organism-based; set-up: dose 22 mg/kg, route po; conditions: in vivo
[29] = AUC in Sprague-Dawley rat at 22 mg/kg, po administered via gavage by LC-MS/MS analysis; conditions: in vivo
[30] = Cmax in Sprague-Dawley rat at 19 mg/kg, po administered via gavage by LC-MS/MS analysis; assay type: ADME, organism-based; set-up: dose 19 mg/kg, route po; conditions: in vivo
[31] = AUC in Sprague-Dawley rat at 19 mg/kg, po administered via gavage by LC-MS/MS analysis; conditions: in vivo
[32] = Cmax in Sprague-Dawley rat at […], po administered via gavage by LC-MS/MS analysis; assay type: ADME, organism-based; set-up: dose 7.2 mg/kg, route po; conditions: in vivo
[33] = Dose normalized AUC in Sprague-Dawley rat at […], po administered via gavage by LC-MS/MS analysis; assay type: ADME, organism-based; conditions: in vivo, dose 7.2 mg/kg
[34] = Cmax in Sprague-Dawley rat at 1.8 mg/kg, po administered via gavage by LC-MS/MS analysis; assay type: ADME, organism-based; set-up: dose 1.8 mg/kg, route po; conditions: in vivo
[35] = AUC in Sprague-Dawley rat at 1.8 mg/kg, po administered via gavage by LC-MS/MS analysis; conditions: in vivo

Structure (SMILES) | Activity [1] | Activity [2] | Activity [5] | IC50 [9] | IC50 [19] | also measured
CN1Cc2c(Cl)cc(Cl)cc2C(c2cccc(S(=O)(=O)NCCOCCOCCOCCNC(=O)CCC(=O)NCCOCCOCCOCCNS(=O)(=O)c3cccc(C4CN(C)Cc5c(Cl)cc(Cl)cc54)c3)c2)C1 (racemic) | 1.5 | 54% | 56% |  |  | Cmax [3]: < 2 ng/mL; AUC [4]: < 8 ng·h/mL
CN1Cc2c(Cl)cc(Cl)cc2C(c2ccc(S(=O)(=O)NCCOCCOCCNC(=O)NCCOCCOCCNS(=O)(=O)c3ccc(C4CN(C)Cc5c(Cl)cc(Cl)cc54)cc3)cc2)C1 (racemic) | 1 | 49% | 107% |  |  | Cmax [6]: < 2 ng/mL; AUC [7]: < 8 ng·h/mL
CN1Cc2c(Cl)cc(Cl)cc2C(c2ccc(S(=O)(=O)NCCOCCOCCOCCNC(=O)NCCOCCOCCOCCNS(=O)(=O)c3ccc(C4CN(C)Cc5c(Cl)cc(Cl)cc54)cc3)cc2)C1 (centres undefined) |  | 60% | 25% |  |  | AUC [8]: < 19 ng·h/mL
CN1Cc2c(Cl)cc(Cl)cc2C(c2ccc(S(=O)(=O)NCCOCCOCCNC(=O)c3ccc(C(=O)NCCOCCOCCNS(=O)(=O)c4ccc(C5CN(C)Cc6c(Cl)cc(Cl)cc65)cc4)cc3)cc2)C1 (racemic) | 2 | 56% | 45% | 398 nM |  | Cmax [10]: < 3 ng/mL; AUC [11]: < 8 ng·h/mL
CN1Cc2c(Cl)cc(Cl)cc2[C@H](c2cccc(S(=O)(=O)NCCOCCOCCNC(=O)COCC(=O)NCCOCCOCCNS(=O)(=O)c3cccc([C@@H]4CN(C)Cc5c(Cl)cc(Cl)cc54)c3)c2)C1 |  |  |  |  |  | inhibition [12]: Active; Activity [13]: 10%; dose excreted at 64 h [14]: 117%; Drug metabolism [15]: Metabolite_Notdetected; Cmax [16]: < 2 ng/mL; Drug metabolism [17]: Metabolite_Notdetected; inhibition at 10 µM [18]: < 50%
CN1Cc2c(Cl)cc(Cl)cc2C(c2cccc(S(N)(=O)=O)c2)C1 (racemic) |  |  |  |  | 631 nM | Cmax [20]: 159 ng/mL; F [21]: 98%; Papp [22]: >= 10 10^-6 cm/s; AUC [23]: 522 ng·h/mL
CN1Cc2c(Cl)cc(Cl)cc2[C@H](c2cccc(NC(=O)[C@H](O)[C@@H](O)[C@H](O)[C@H](O)CO)c2)C1 |  |  |  | 39.8 nM | 25.1 nM | Cmax [24]: 6 ng/mL; inhibition [25]: Active; inhibition [26]: Active; AUC [27]: 12 ng·h/mL
CN1Cc2c(Cl)cc(Cl)cc2C(c2cccc(S(=O)(=O)NCCOCCOCCNC(=O)c3ccc(C(=O)NCCOCCOCCNS(=O)(=O)c4cccc(C5CN(C)Cc6c(Cl)cc(Cl)cc65)c4)cc3)c2)C1 (racemic) | 2 | 58% | 24% | 6310 nM |  | Cmax [28]: < 2 ng/mL; AUC [29]: < 8 ng·h/mL
CN1Cc2c(Cl)cc(Cl)cc2C(c2ccc(S(=O)(=O)NCCOCCOCCOCCNC(=O)c3ccc(C(=O)NCCOCCOCCOCCNS(=O)(=O)c4ccc(C5CN(C)Cc6c(Cl)cc(Cl)cc65)cc4)cc3)cc2)C1 (racemic) | 1.5 | 56% | 50% | 12.6 nM | 39.8 nM | Cmax [30]: < 3 ng/mL; AUC [31]: < 9 ng·h/mL
CN1Cc2c(Cl)cc(Cl)cc2C(c2cccc(S(=O)(=O)NCCOCCOCCOCCNC(=O)c3ccc(C(=O)NCCOCCOCCOCCNS(=O)(=O)c4cccc(C5CN(C)Cc6c(Cl)cc(Cl)cc65)c4)cc3)c2)C1 (racemic) | 1 | 53% | 87% | 25.1 nM | 50.1 nM | Cmax [32]: < 4 ng/mL; AUC [33]: < 12 ng·h/mL
CN1Cc2c(Cl)cc(Cl)cc2C(c2cccc(S(=O)(=O)NCCOCCOCCOCCNC(=O)NCCOCCOCCOCCNS(=O)(=O)c3cccc(C4CN(C)Cc5c(Cl)cc(Cl)cc54)c3)c2)C1 (racemic) | 1 | 50% | 87% | 100 nM | 200 nM | Cmax [34]: < 20 ng/mL; AUC [35]: < 75 ng·h/mL
